Columns and labels:
green foxtail [1] = test: Test C postemergence; type: in vivo, Setaria viridis; details: 10 days
How it was run: (§1)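 Test material, in non-phytotoxic solvent with surfactant, was sprayed on the soil directly after seeding (preemergence) or on young plants of 2–10 cm with one to two leaves (postemergence). Greenhouse, 10 days; 0–100 visual control scale.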

rice = test: Test D flooded paddy test; type: in vivo, Oryza sativa; details: 250 g ai/ha, applied to paddy water, visual rating after 13 to 14 days, scale 0 to 100 (0 no effect, 100 complete control)
How it was run: (§2)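 Rating scale 0–100 (0 no effect, 100 complete control), visual, versus controls. Readout at 13–14 days after in-water application to 2-leaf plants in pots flooded 3 cm deep.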

horseweed = test: Test C postemergence; type: in vivo, Erigeron canadensis; details: 10 days
How it was run: as §1

pigweed, palmer [2] = test: Test C postemergence; type: in vivo, Amaranthus palmeri; details: 10 days
How it was run: as §1

oat, wild [3] = test: Test C postemergence; type: in vivo, Avena fatua; details: 10 days
How it was run: as §1

kochia [4] = test: Test C preemergence; type: in vivo, Bassia scoparia; details: for Plant response rating, Kochia: Preemergence; for Kochia plant response rating: Test C, preemergence, 125 g ai/ha
How it was run: as §1

ryegrass, Italian = test: Test C postemergence; type: in vivo, Lolium multiflorum; details: 10 days
How it was run: as §1

barnyardgrass [5] = test: Test C preemergence; type: in vivo, Echinochloa crusgalli; details: for Plant response rating, Barnyardgrass: Preemergence; for Barnyardgrass plant response rating: Test C, preemergence, 125 g ai/ha
How it was run: as §1

wheat [6] = test: Test C preemergence; type: in vivo, Triticum aestivum; details: for Plant response rating, Wheat: Preemergence; for Wheat plant response rating: Test C, preemergence, 125 g ai/ha
How it was run: as §1

ducksalad = test: Test D flooded paddy test; type: in vivo, Heteranthera limosa; details: 250 g ai/ha, applied to paddy water, visual rating after 13 to 14 days, scale 0 to 100 (0 no effect, 100 complete control)
How it was run: as §2

sedge, umbrella = test: Test D flooded paddy test; type: in vivo, Cyperus difformis; details: 250 g ai/ha, applied to paddy water, visual rating after 13 to 14 days, scale 0 to 100 (0 no effect, 100 complete control)
How it was run: as §2

blackgrass [7] = test: Test C postemergence; type: in vivo, Alopecurus myosuroides; details: 10 days
How it was run: as §1

barnyardgrass [8] = test: Test C postemergence; type: in vivo, Echinochloa crusgalli; details: 10 days
How it was run: as §1

oat, wild [9] = test: Test C preemergence; type: in vivo, Avena fatua; details: for Plant response rating, Oat, Wild: Preemergence; for Oat, Wild plant response rating: Test C, preemergence, 125 g ai/ha
How it was run: as §1

soybean [10] = test: Test C preemergence; type: in vivo, Glycine max; details: for Plant response rating, Soybean: Preemergence; for Soybean plant response rating: Test C, preemergence, 125 g ai/ha
How it was run: as §1

kochia [11] = test: Test C postemergence; type: in vivo, Bassia scoparia; details: 10 days
How it was run: as §1

barnyardgrass [12] = test: Test D flooded paddy test; type: in vivo, Echinochloa crus-galli; details: 250 g ai/ha, applied to paddy water, visual rating after 13 to 14 days, scale 0 to 100 (0 no effect, 100 complete control)
How it was run: as §2

soybean [13] = test: Test C postemergence; type: in vivo, Glycine max; details: 10 days
How it was run: as §1

wheat [14] = test: Test C postemergence; type: in vivo, Triticum aestivum; details: 10 days
How it was run: as §1

blackgrass [15] = test: Test C preemergence; type: in vivo, Alopecurus myosuroides; details: for Plant response rating, Blackgrass: Preemergence; for Blackgrass plant response rating: Test C, preemergence, 125 g ai/ha
How it was run: as §1

corn [16] = test: Test C postemergence; type: in vivo, Zea mays; details: 10 days
How it was run: as §1

corn [17] = test: Test C preemergence; type: in vivo, Zea mays; details: for Plant response rating, Corn: Preemergence; for Corn plant response rating: Test C, preemergence, 125 g ai/ha
How it was run: as §1

pigweed, palmer [18] = test: Test C preemergence; type: in vivo, Amaranthus palmeri; details: for Plant response rating, Pigweed, Palmer: Preemergence; for Pigweed, Palmer plant response rating: Test C, preemergence, 125 g ai/ha
How it was run: as §1

ragweed [19] = test: Test C postemergence; type: in vivo, Ambrosia artemisiifolia; details: 10 days
How it was run: as §1

galium = test: Test C postemergence; type: in vivo, Galium aparine; details: 10 days
How it was run: as §1

green foxtail [20] = test: Test C preemergence; type: in vivo, Setaria viridis; details: for Plant response rating, Foxtail, Green: Preemergence; for Foxtail, Green plant response rating: Test C, preemergence, 125 g ai/ha
How it was run: as §1

ragweed [21] = test: Test C preemergence; type: in vivo, Ambrosia artemisiifolia; details: for Plant response rating, Ragweed: Preemergence; for Ragweed plant response rating: Test C, preemergence, 125 g ai/ha
How it was run: as §1

[22] = 125 g ai/ha, postemergence, 0 to 100 scale, 0 no effect, 100 complete control
[23] = Postemergence, 500 g ai/ha, visual 0 to 100 scale (0 no effect, 100 complete control)
[24] = 500 g ai/ha, visual rating after 10 days, 0 to 100 scale (0 no effect, 100 complete control)
[25] = 0 to 100 scale (0 no effect, 100 complete control)
[26] = Postemergence, 31 g ai/ha, 0 to 100 scale, 0 no effect, 100 complete control
[27] = 31 g ai/ha, 0 to 100 scale, 0 no effect, 100 complete control

CCc1c(C)cc(-n2cnc(C(C)C)n2)cc1C(=O)N1C[C@H](C)Oc2c(Cl)cccc21 [Compound 179]
30: Plant response rating, Kochia (kochia [11]; [22]) | Plant response rating, Kochia (kochia [11]; [23])
50: Plant response rating, Galium (galium; [22]) | Plant response rating, Foxtail, Green (green foxtail [20]; [24])
20: Plant response rating, Foxtail, Green (green foxtail [1]; [23]) | Plant response rating, Ryegrass, Italian (ryegrass, Italian; [23])
60: Plant response rating, Pigweed, Palmer (pigweed, palmer [2]; [23])
90: Plant response rating, Galium (galium; [23])
0: Plant response rating, Rice (Flood) (rice) | Plant response rating, Horseweed (horseweed; [22]) | Plant response rating, Oat, Wild (oat, wild [3]; [22]) | Plant response rating, Oat, Wild (oat, wild [3]; [23]) | Plant response rating, Kochia (kochia [4]; [24]) | Kochia plant response rating (kochia [4]; [25]) | Plant response rating, Ryegrass, Italian (ryegrass, Italian; [22]) | Plant response rating, Barnyardgrass (barnyardgrass [5]; [24]) | Barnyardgrass plant response rating (barnyardgrass [5]; [25]) | Plant response rating, Wheat (wheat [6]; [24]) | Wheat plant response rating (wheat [6]; [25]) | Plant response rating, Ducksalad (Flood) (ducksalad) | Plant response rating, Sedge, Umbrella (Flood) (sedge, umbrella) | Plant response rating, Blackgrass (blackgrass [7]; [22]) | Plant response rating, Blackgrass (blackgrass [7]; [23]) | Plant response rating, Oat, Wild (oat, wild [9]; [24]) | Oat, Wild plant response rating (oat, wild [9]; [25]) | Plant response rating, Soybean (soybean [10]; [24]) | Soybean plant response rating (soybean [10]; [25]) | Plant response rating, Barnyardgrass (Flood) (barnyardgrass [12]) | Plant response rating, Blackgrass (blackgrass [15]; [24]) | Blackgrass plant response rating (blackgrass [15]; [25]) | Plant response rating, Corn (corn [16]; [22]) | Plant response rating, Corn (corn [17]; [24]) | Corn plant response rating (corn [17]; [25]) | Pigweed, Palmer plant response rating (pigweed, palmer [18]; [25]) | Foxtail, Green plant response rating (green foxtail [20]; [25]) | Plant response rating, Ragweed (ragweed [21]; [24]) | Ragweed plant response rating (ragweed [21]; [25])
40: Plant response rating, Horseweed (horseweed; [23]) | Plant response rating, Soybean (soybean [13]; [23])
10: Plant response rating, Foxtail, Green (green foxtail [1]; [22]) | Plant response rating, Pigweed, Palmer (pigweed, palmer [2]; [22]) | Plant response rating, Barnyardgrass (barnyardgrass [8]; [22]) | Plant response rating, Barnyardgrass (barnyardgrass [8]; [23]) | Plant response rating, Wheat (wheat [14]; [22]) | Plant response rating, Wheat (wheat [14]; [23]) | Plant response rating, Corn (corn [16]; [23]) | Plant response rating, Pigweed, Palmer (pigweed, palmer [18]; [24]) | Plant response rating, Ragweed (ragweed [19]; [23])

CCC(O)(CC)c1ncn(-c2ccc(C)c(C(=O)N3C[C@H](C)Oc4c(Cl)cccc43)c2)n1 [Compound 180]
65: Plant response rating, Ducksalad (Flood) (ducksalad)
70: Plant response rating, Pigweed, Palmer (pigweed, palmer [2]; [22]) | Plant response rating, Oat, Wild (oat, wild [3]; [22]) | Plant response rating, Galium (galium; [26]) | Foxtail, Green plant response rating (green foxtail [20]; [25])
0: Plant response rating, Rice (Flood) (rice) | Plant response rating, Horseweed (horseweed; [22]) | Plant response rating, Horseweed (horseweed; [26]) | Plant response rating, Oat, Wild (oat, wild [3]; [26]) | Plant response rating, Kochia (kochia [4]; [27]) | Kochia plant response rating (kochia [4]; [25]) | Plant response rating, Ryegrass, Italian (ryegrass, Italian; [26]) | Plant response rating, Barnyardgrass (barnyardgrass [5]; [27]) | Plant response rating, Wheat (wheat [6]; [27]) | Wheat plant response rating (wheat [6]; [25]) | Plant response rating, Blackgrass (blackgrass [7]; [26]) | Plant response rating, Oat, Wild (oat, wild [9]; [27]) | Plant response rating, Soybean (soybean [10]; [27]) | Plant response rating, Barnyardgrass (Flood) (barnyardgrass [12]) | Plant response rating, Blackgrass (blackgrass [15]; [27]) | Plant response rating, Corn (corn [16]; [26]) | Plant response rating, Corn (corn [17]; [27]) | Corn plant response rating (corn [17]; [25]) | Plant response rating, Pigweed, Palmer (pigweed, palmer [18]; [27]) | Plant response rating, Ragweed (ragweed [21]; [27])
60: Barnyardgrass plant response rating (barnyardgrass [5]; [25]) | Pigweed, Palmer plant response rating (pigweed, palmer [18]; [25]) | Plant response rating, Ragweed (ragweed [19]; [22])
40: Plant response rating, Sedge, Umbrella (Flood) (sedge, umbrella) | Plant response rating, Ragweed (ragweed [19]; [26])
10: Plant response rating, Foxtail, Green (green foxtail [1]; [26]) | Plant response rating, Blackgrass (blackgrass [7]; [22]) | Plant response rating, Barnyardgrass (barnyardgrass [8]; [26]) | Plant response rating, Wheat (wheat [14]; [26]) | Plant response rating, Corn (corn [16]; [22])
20: Plant response rating, Foxtail, Green (green foxtail [1]; [22]) | Plant response rating, Barnyardgrass (barnyardgrass [8]; [22]) | Plant response rating, Wheat (wheat [14]; [22]) | Blackgrass plant response rating (blackgrass [15]; [25]) | Ragweed plant response rating (ragweed [21]; [25])
100: Plant response rating, Soybean (soybean [13]; [22])
90: Plant response rating, Soybean (soybean [13]; [26]) | Plant response rating, Galium (galium; [22])
30: Plant response rating, Pigweed, Palmer (pigweed, palmer [2]; [26]) | Plant response rating, Kochia (kochia [11]; [26]) | Plant response rating, Foxtail, Green (green foxtail [20]; [27])
50: Plant response rating, Ryegrass, Italian (ryegrass, Italian; [22]) | Oat, Wild plant response rating (oat, wild [9]; [25]) | Soybean plant response rating (soybean [10]; [25]) | Plant response rating, Kochia (kochia [11]; [22])

— patent US20260262643A1, “HERBICIDAL BENZOXAZINES” (FMC CORPORATION, priority 2022, published 2026)
